Assay results taken from article PMC7187627 (Antimicrobial Agents and Chemotherapy, 2019).

Test: Safety and tolerability (adverse events, laboratory tests, ECG), multiple-ascending-dose phase 1 study
Format: in vivo
Settings: all TEAEs
Source text: Subjects were monitored closely with serial physical examinations, blood evaluations, and 12-lead ECGs. Subjects underwent safety laboratory testing, including measurement of blood cell counts (white blood cell [WBC] with differential, hemoglobin, and platelets), serum chemistry (sodium, potassium, chloride, calcium, bicarbonate, glucose, creatinine, blood urea nitrogen [BUN], creatine kinase [CK], aspartate aminotransferase [AST], alanine aminotransferase [ALT], alkaline phosphatase [ALP], total bilirubin, protein, albumin, amylase, and lipase) and urinalysis (protein, blood, and glucose). Study halting criteria had been established and were reviewed by an independent safety monitor (ISM) and the Safety Monitoring Committee (SMC) prior to proceeding with dosing within a cohort or to the next cohort.
The safety population included all subjects who received at least one dose of the study drug. The safety and tolerability of CRS3123 were evaluated by the sequential review of reported adverse events (AEs), changes from baseline in physical examination findings, vital sign measurements, safety laboratory tests (hematology, clinical chemistry, and urinalysis), and key 12-lead ECG findings. All safety assessments were summarized with descriptive statistics or frequency counts.
The period of observation for AE reporting began on day 1 at the time of study drug administration and continued through the final visit.
All AEs were coded to system organ class (SOC) and preferred term (PT) using the Medical Dictionary for Regulatory Activities (MedDRA), version 17.0 (https://www.meddra.org/). A treatment-emergent AE (TEAE) was defined as any AE that occurred during the study observation period (i.e., from day 1 at the time of study drug administration through the final visit). An AE with a partial onset date was classified as a TEAE if the reported partial onset date could not definitely be identified as before the date of study drug administration. Any AE with a missing onset date or missing time on day of study drug administration was classified as a TEAE.
To count the overall number of subjects who experienced each TEAE and calculation of an occurrence rate, a subject experiencing multiple occurrences of an AE was counted only once for that PT. Similarly, if a subject experienced multiple TEAEs within the same SOC, that subject was counted once to calculate an occurrence rate for the SOC. To count the number of subjects who experienced each TEAE by severity classification (mild, moderate, severe, and life-threatening) and calculate an occurrence rate, a subject experiencing multiple occurrences of an AE of the same severity was counted once in that particular severity classification for that PT. If a subject experienced multiple occurrences of an AE of differing severities, only the most severe occurrence within each PT was counted.

O=c1cc(NCCCN[C@@H]2CCOc3c(Br)cc(Br)cc32)[nH]c2ccsc12 [CRS3123]
No. (%) of subjects: Aspartate aminotransferase increased (Cohort A, 200 mg Q12h (n = 8)): 0 (0.0)
No. (%) of subjects: Blood bilirubin increased (Cohort A, 200 mg Q12h (n = 8)): 0 (0.0)
No. (%) of subjects: Blood calcium increased (Cohort A, 200 mg Q12h (n = 8)): 0 (0.0)
No. (%) of subjects: Blood potassium increased (Cohort A, 200 mg Q12h (n = 8)): 0 (0.0)
No. (%) of subjects: Blood pressure, diastolic, decreased (Cohort A, 200 mg Q12h (n = 8)): 0 (0.0)
No. (%) of subjects: Blood pressure, diastolic, increased (Cohort A, 200 mg Q12h (n = 8)): 0 (0.0)
No. (%) of subjects: Blood pressure, systolic, decreased (Cohort A, 200 mg Q12h (n = 8)): 0 (0.0)
No. (%) of subjects: Blood pressure, systolic, increased (Cohort A, 200 mg Q12h (n = 8)): 0 (0.0)
No. (%) of subjects: Diarrhea (Cohort A, 200 mg Q12h (n = 8)): 0 (0.0)
No. (%) of subjects: Dry skin (Cohort A, 200 mg Q12h (n = 8)): 0 (0.0)
No. (%) of subjects: Dysgeusia (Cohort A, 200 mg Q12h (n = 8)): 0 (0.0)
No. (%) of subjects: Ear and labyrinth disorders (system organ class) (Cohort A, 200 mg Q12h (n = 8)): 1 (12.5)
No. (%) of subjects: Ear discomfort (Cohort A, 200 mg Q12h (n = 8)): 1 (12.5)
No. (%) of subjects: Erythema (Cohort A, 200 mg Q12h (n = 8)): 0 (0.0)
No. (%) of subjects: Gastrointestinal disorders (system organ class) (Cohort A, 200 mg Q12h (n = 8)): 0 (0.0)
No. (%) of subjects: General disorders and administration site conditions (system organ class) (Cohort A, 200 mg Q12h (n = 8)): 0 (0.0)
No. (%) of subjects: Headache (Cohort A, 200 mg Q12h (n = 8)): 1 (12.5)
No. (%) of subjects: Hemoglobin decreased (Cohort A, 200 mg Q12h (n = 8)): 2 (25.0)
No. (%) of subjects: Infections and infestations (system organ class) (Cohort A, 200 mg Q12h (n = 8)): 1 (12.5)
No. (%) of subjects: Infusion site thrombosis (Cohort A, 200 mg Q12h (n = 8)): 0 (0.0)
No. (%) of subjects: Injury, poisoning, and procedural complications (system organ class) (Cohort A, 200 mg Q12h (n = 8)): 1 (12.5)
No. (%) of subjects: Investigations (system organ class) (Cohort A, 200 mg Q12h (n = 8)): 5 (62.5)
No. (%) of subjects: Lipase increased (Cohort A, 200 mg Q12h (n = 8)): 1 (12.5)
No. (%) of subjects: Musculoskeletal and connective tissue disorders (system organ class) (Cohort A, 200 mg Q12h (n = 8)): 0 (0.0)
No. (%) of subjects: Myalgia (Cohort A, 200 mg Q12h (n = 8)): 0 (0.0)
No. (%) of subjects: Nervous system disorders (system organ class) (Cohort A, 200 mg Q12h (n = 8)): 1 (12.5)
No. (%) of subjects: Oropharyngeal pain (Cohort A, 200 mg Q12h (n = 8)): 0 (0.0)
No. (%) of subjects: Psychiatric disorders (system organ class) (Cohort A, 200 mg Q12h (n = 8)): 1 (12.5)
No. (%) of subjects: Respiratory, thoracic, and mediastinal disorders (system organ class) (Cohort A, 200 mg Q12h (n = 8)): 0 (0.0)
No. (%) of subjects: Skin and subcutaneous tissue disorders (system organ class) (Cohort A, 200 mg Q12h (n = 8)): 0 (0.0)
No. (%) of subjects: Subjects with TEAEs (Cohort A, 200 mg Q12h (n = 8)): 8 (100.0)
No. (%) of subjects: Throat irritation (Cohort A, 200 mg Q12h (n = 8)): 0 (0.0)
No. (%) of subjects: Upper respiratory tract infection (Cohort A, 200 mg Q12h (n = 8)): 1 (12.5)
No. (%) of subjects: White blood cell count increased (Cohort A, 200 mg Q12h (n = 8)): 0 (0.0)
No. (%) of subjects: Alanine aminotransferase increased (Cohort B, 400 mg Q12h (n = 8)): 0 (0.0)
No. (%) of subjects: Amylase increased (Cohort B, 400 mg Q12h (n = 8)): 1 (12.5)
No. (%) of subjects: Anxiety (Cohort B, 400 mg Q12h (n = 8)): 0 (0.0)
No. (%) of subjects: Arthropod bite (Cohort B, 400 mg Q12h (n = 8)): 0 (0.0)
No. (%) of subjects: Aspartate aminotransferase increased (Cohort B, 400 mg Q12h (n = 8)): 0 (0.0)
No. (%) of subjects: Blood bilirubin increased (Cohort B, 400 mg Q12h (n = 8)): 0 (0.0)
No. (%) of subjects: Blood calcium increased (Cohort B, 400 mg Q12h (n = 8)): 1 (12.5)
No. (%) of subjects: Blood potassium increased (Cohort B, 400 mg Q12h (n = 8)): 1 (12.5)
No. (%) of subjects: Blood pressure, diastolic, decreased (Cohort B, 400 mg Q12h (n = 8)): 0 (0.0)
No. (%) of subjects: Blood pressure, diastolic, increased (Cohort B, 400 mg Q12h (n = 8)): 0 (0.0)
No. (%) of subjects: Blood pressure, systolic, decreased (Cohort B, 400 mg Q12h (n = 8)): 0 (0.0)
No. (%) of subjects: Blood pressure, systolic, increased (Cohort B, 400 mg Q12h (n = 8)): 0 (0.0)
No. (%) of subjects: Diarrhea (Cohort B, 400 mg Q12h (n = 8)): 2 (25.0)
